Measured values reported in patent publication US20230286919A1, “ISOQUINOLINE DERIVATIVES FOR USE IN THERAPY” (Vestlandets Innovasjonsselskap AS, priority 2020, published 2023).
Read-outs that look alike come from different tables or passages of the source.

Columns and labels:
FLT1 (VEGFR1) = FLT1 (VEGFR1) (Homo sapiens, UniProt P17948); assay: SelectScreen kinase profiling, FLT1; assay type: biochemical; settings: read-out: Enzyme inhibitory activity IC50
FGFR1 = FGFR1 (Homo sapiens, UniProt P11362); assay: SelectScreen kinase profiling, FGFR1; assay type: biochemical; settings: read-out: Enzyme inhibitory activity IC50
LYN B = LYN B (Homo sapiens, UniProt P07948); assay: SelectScreen kinase profiling, LYN B; assay type: biochemical; settings: read-out: Enzyme inhibitory activity IC50
EGFR (ErbB1) = EGFR (ErbB1) (Homo sapiens, UniProt P00533); assay: SelectScreen kinase profiling, EGFR; assay type: biochemical; settings: read-out: Enzyme inhibitory activity IC50
JAK1 = JAK1 (Homo sapiens, UniProt P23458); assay: SelectScreen kinase profiling, JAK1; assay type: biochemical; settings: read-out: Enzyme inhibitory activity IC50
MAP2K4 (MEK4) = MAP2K4 (MEK4) (Homo sapiens, UniProt P45985); assay: SelectScreen kinase profiling, MAP2K4 (MEK4); assay type: binding; settings: cell free, read-out: Enzyme inhibitory activity IC50
Description: (§1) The in vitro kinase inhibitory assays in the presence of compounds 323-1 and 323-2 were carried out according to the Z′-LYTE™ Screening and LanthaScreen Eu Kinase Binding Assays Experimental Procedures in Invitrogen (ThermoFisher Scientific, Waltham, Mass., USA). For the Z′-LYTE™ Screening profiling for FRAP1 (mTOR), JAK3, and LTK (TYK1), a mixture containing the test compounds in 100% DMSO, 2.4 μL Kinase buffer (50 mM HEPES pH 7.5, 0.01% BRIJ-35, 10 mM MgCl2, 1 mM EGTA), 5 μL 2× Peptide/Kinase Mixture, 2.5 μL 4×ATP Solution were added into black 384-well low volume NBS and bar-coded corning plate (Corning Cat. #4514) and shake the plate for 30 seconds. After incubation at RT for 60 min, 5 μL Development Reagent Solution was added into plate and shake the plate for 30 seconds, followed by Development Reaction incubation at RT for 60 min. Read on fluorescence plate reader and analyze the data. […]
(§2) Inhibition by compounds 323-1 and 323-2 of MAP2K4 (MEK4) and TGFBR1 (ALK5) was determined by […]. Inhibition by compounds 323-1 and 323-2 of FRAP1 (mTOR), JAK3, and LTK (TYK1) was determined by […] using the Adapta Universal Kinase Assay (Life Technologies). […]

FGFR3 = FGFR3 (Homo sapiens, UniProt P22607); assay: SelectScreen kinase profiling, FGFR3; assay type: biochemical; settings: read-out: Enzyme inhibitory activity IC50
AKT2 (PKB beta) = AKT2 (PKB beta) (Homo sapiens, UniProt P31751); assay: SelectScreen kinase profiling, AKT2; assay type: biochemical; settings: read-out: Enzyme inhibitory activity IC50
LYN A = LYN A (Homo sapiens, UniProt P07948); assay: SelectScreen kinase profiling, LYN A; assay type: biochemical; settings: read-out: Enzyme inhibitory activity IC50
FRAP1 (mTOR) = FRAP1 (mTOR) (Homo sapiens, UniProt P42345); assay: SelectScreen biochemical kinase profiling, FRAP1 (mTOR); settings: cell free, read-out: Enzyme inhibitory activity IC50
Description: as §1, §2

[1] = target: T1, Recombinant Human STAT3 protein (SH2 domain) (Homo sapiens, UniProt P40763); assay: Fluorescence Polarization (FP) competition assay, STAT3 / GpYLPQTV-NH2 peptide; assay type: binding
T1 construct: purchased Abcam ab43618
Description: The FP assay was conducted as described by Zhao et al. (J Biol Chem. 2010; 285: 35855-65). The labeled phosphopeptide, 5-FLU-G(P-TYR)LPQTV-NH2 was synthesized by ProImmune (London, UK) with over 95% purity as probe. The Recombinant Human STAT3 protein was purchased from Abcam (ab43618). For saturation curves, various concentration of peptide probe (0-100 nM) and STAT3 protein ([…]) were incubated for 30 min at RT in the buffer (50 mm NaCl, 10 mm HEPES, 1 mm EDTA, 0.1% Nonidet P-40). To obtain the inhibitory effect, drugs (0-1000 μM) and 150 nM human STAT3 were incubated at 37° C. for 1 hour prior to co-incubation with 10 nM of labeled LPQTV peptide at RT for 30 min. […] The fluorescence polarization was then analyzed by the BioTek Synergy™ Neo2 Multi-Mode Microplate Reader (BioTek Instruments, Winooski, Vt., USA). Ki=IC50/(([L])/Kd)+1).
Strategies to target STAT3 SH2 have been pursued recently. These small molecule inhibitors are designed to bind to a site resident in the STAT3 SH2 domain by competing with the p-Tyr705.
As STAT3 may be recruited to gp130 within phosphotyrosine residues, the competitive FP assay was utilized to identify whether 323-1 and 323-2 target STAT3 SH2 domain.
The control was set as 1% DMSO. Data are representative of 2 independent experiments.

ERBB4 (HER4) = ERBB4 (HER4) (Homo sapiens, UniProt Q15303); assay: SelectScreen kinase profiling, ERBB4; assay type: biochemical; settings: read-out: Enzyme inhibitory activity IC50
LTK (TYK1) = LTK (TYK1) (Homo sapiens, UniProt P29376); assay: SelectScreen biochemical kinase profiling, LTK (TYK1); settings: cell free, read-out: Enzyme inhibitory activity IC50
Description: as §1, §2

SRC N1 = SRC N1 (Homo sapiens, UniProt P12931); assay: SelectScreen kinase profiling, SRC N1; assay type: biochemical; settings: read-out: Enzyme inhibitory activity IC50
MAPK3 (ERK1) = MAPK3 (ERK1) (Homo sapiens, UniProt P27361); assay: SelectScreen kinase profiling, MAPK3; assay type: biochemical; settings: read-out: Enzyme inhibitory activity IC50
TYK2 = TYK2 (Homo sapiens, UniProt P29597); assay: SelectScreen kinase profiling, TYK2; assay type: biochemical; settings: read-out: Enzyme inhibitory activity IC50
SRC = SRC (Homo sapiens, UniProt P12931); assay: SelectScreen kinase profiling, SRC; assay type: biochemical; settings: read-out: Enzyme inhibitory activity IC50
PDGFRA (PDGFR alpha) = PDGFRA (PDGFR alpha) (Homo sapiens, UniProt P16234); assay: SelectScreen kinase profiling, PDGFRA; assay type: biochemical; settings: read-out: Enzyme inhibitory activity IC50
PRKCD (PKC delta) = PRKCD (PKC delta) (Homo sapiens, UniProt Q05655); assay: SelectScreen kinase profiling, PRKCD; assay type: biochemical; settings: read-out: Enzyme inhibitory activity IC50
FGFR2 = FGFR2 (Homo sapiens, UniProt P21802); assay: SelectScreen kinase profiling, FGFR2; assay type: biochemical; settings: read-out: Enzyme inhibitory activity IC50
[2] = 10 nM peptide, 150 nM human STAT3 (FIG. 20), read-out: Ki, disruption of binding of STAT3 to phosphotyrosine peptide GpYLPQTV
[3] = background (autofluorescence) subtracted (FIG. 33), read-out: Ki, protein-ligand interaction after background subtraction

T1 sequence (P40763 whole entry, the tested form may be a part): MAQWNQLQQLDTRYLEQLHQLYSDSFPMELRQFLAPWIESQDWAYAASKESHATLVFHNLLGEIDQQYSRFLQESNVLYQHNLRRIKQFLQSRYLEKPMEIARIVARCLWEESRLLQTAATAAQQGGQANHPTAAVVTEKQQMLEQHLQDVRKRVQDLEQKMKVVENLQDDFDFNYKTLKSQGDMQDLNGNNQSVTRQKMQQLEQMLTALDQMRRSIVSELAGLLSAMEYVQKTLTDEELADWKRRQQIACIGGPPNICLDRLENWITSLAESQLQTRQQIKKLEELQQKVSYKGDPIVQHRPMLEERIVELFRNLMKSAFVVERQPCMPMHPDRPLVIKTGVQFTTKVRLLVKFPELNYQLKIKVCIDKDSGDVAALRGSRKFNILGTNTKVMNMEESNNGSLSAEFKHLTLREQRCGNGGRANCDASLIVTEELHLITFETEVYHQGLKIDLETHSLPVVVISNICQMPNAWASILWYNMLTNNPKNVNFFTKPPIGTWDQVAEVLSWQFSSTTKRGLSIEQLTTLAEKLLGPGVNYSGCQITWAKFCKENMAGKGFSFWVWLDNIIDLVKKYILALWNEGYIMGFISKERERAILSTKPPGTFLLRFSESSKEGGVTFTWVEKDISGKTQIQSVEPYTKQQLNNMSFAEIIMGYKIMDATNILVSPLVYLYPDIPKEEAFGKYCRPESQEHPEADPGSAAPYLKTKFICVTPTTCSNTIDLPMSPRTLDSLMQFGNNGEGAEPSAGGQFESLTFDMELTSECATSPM
Chain of SRC N1 (P12931 1-542 isoform P12931-2): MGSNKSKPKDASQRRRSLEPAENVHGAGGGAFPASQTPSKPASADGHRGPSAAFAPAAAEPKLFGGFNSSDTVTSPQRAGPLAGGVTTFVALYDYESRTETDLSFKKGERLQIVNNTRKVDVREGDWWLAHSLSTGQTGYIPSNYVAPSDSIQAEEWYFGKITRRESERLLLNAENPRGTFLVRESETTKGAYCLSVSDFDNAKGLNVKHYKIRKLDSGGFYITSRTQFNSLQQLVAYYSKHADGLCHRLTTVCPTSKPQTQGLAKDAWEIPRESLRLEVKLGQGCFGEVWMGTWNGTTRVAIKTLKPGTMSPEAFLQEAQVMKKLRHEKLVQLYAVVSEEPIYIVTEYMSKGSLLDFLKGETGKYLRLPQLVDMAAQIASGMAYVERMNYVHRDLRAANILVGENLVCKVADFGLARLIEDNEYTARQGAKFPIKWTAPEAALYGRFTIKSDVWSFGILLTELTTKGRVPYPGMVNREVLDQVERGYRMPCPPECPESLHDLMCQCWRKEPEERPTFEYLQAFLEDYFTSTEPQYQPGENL
Chain of FLT1 (VEGFR1) (P17948 27-1338): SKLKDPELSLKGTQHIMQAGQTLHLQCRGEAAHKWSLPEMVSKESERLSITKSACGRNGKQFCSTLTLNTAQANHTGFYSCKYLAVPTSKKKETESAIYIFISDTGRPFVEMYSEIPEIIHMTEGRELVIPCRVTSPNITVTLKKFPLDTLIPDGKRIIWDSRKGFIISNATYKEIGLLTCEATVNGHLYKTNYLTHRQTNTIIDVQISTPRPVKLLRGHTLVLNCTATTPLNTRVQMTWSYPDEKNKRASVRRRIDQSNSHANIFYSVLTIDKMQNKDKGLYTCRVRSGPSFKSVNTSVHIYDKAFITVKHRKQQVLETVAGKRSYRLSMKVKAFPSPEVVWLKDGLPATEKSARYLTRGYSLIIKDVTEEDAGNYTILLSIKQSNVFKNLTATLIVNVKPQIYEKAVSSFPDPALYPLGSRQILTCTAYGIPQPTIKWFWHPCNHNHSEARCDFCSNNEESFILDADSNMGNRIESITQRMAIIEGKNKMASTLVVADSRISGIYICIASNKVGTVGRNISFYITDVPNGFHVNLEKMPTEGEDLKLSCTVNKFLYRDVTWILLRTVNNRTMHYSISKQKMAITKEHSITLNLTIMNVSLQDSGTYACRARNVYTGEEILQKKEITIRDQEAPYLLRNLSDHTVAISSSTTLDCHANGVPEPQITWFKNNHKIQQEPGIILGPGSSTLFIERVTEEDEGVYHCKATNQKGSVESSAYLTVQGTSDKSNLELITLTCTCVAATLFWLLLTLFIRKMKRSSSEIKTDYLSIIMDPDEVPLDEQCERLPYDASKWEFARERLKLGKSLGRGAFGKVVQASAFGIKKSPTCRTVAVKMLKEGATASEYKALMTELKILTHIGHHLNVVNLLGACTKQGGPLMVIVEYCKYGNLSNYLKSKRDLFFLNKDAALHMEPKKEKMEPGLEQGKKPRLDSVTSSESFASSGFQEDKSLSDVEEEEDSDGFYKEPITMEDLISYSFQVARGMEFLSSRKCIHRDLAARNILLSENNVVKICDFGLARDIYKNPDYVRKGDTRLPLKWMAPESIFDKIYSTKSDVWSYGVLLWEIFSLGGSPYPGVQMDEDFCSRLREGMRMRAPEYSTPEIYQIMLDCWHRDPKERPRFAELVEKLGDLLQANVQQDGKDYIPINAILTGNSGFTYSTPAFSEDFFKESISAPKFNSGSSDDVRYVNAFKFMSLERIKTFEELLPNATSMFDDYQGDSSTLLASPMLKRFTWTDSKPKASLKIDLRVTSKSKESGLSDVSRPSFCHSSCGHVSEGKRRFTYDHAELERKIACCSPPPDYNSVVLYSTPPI
Chain of PRKCD (PKC delta) (Q05655 whole entry): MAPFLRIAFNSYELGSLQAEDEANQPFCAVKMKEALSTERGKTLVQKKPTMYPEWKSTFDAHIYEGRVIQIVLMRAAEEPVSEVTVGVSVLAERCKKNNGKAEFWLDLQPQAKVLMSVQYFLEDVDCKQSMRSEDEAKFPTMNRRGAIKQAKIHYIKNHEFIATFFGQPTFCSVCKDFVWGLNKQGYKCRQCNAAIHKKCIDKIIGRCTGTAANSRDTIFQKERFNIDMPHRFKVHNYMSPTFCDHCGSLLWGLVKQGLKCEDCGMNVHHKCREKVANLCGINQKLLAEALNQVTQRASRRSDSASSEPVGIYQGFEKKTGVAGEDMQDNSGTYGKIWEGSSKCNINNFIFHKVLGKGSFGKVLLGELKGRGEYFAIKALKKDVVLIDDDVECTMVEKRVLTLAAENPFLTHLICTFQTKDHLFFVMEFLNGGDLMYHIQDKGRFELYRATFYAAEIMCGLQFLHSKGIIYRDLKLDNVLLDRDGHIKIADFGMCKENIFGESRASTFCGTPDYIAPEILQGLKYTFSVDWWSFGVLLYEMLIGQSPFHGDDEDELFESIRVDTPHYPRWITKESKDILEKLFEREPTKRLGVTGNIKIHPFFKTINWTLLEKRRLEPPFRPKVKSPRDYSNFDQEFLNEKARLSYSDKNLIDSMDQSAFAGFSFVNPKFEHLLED
Chain of LTK (TYK1) (P29376 17-864): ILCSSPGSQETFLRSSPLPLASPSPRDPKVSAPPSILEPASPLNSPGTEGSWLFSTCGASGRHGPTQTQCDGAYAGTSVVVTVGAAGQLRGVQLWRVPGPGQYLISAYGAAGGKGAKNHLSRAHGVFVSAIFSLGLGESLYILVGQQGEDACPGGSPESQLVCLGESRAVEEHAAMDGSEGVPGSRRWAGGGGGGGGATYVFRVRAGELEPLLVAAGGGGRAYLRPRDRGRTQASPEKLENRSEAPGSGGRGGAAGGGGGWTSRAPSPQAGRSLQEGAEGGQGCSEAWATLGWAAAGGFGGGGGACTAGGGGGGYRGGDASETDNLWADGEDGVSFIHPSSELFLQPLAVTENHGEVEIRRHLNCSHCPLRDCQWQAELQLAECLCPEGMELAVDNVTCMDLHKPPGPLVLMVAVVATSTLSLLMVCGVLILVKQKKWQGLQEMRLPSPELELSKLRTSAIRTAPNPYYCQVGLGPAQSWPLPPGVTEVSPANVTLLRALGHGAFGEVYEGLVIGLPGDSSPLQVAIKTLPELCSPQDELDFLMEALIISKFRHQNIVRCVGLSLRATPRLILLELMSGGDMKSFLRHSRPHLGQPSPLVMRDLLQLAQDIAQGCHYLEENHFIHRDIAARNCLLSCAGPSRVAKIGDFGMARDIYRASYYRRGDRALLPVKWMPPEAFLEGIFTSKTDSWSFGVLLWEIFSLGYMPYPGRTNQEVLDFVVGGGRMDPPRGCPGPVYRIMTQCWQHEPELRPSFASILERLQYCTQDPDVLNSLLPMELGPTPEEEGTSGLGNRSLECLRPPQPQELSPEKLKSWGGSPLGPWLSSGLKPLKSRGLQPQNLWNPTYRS
Chain of FGFR3 (P22607 23-806): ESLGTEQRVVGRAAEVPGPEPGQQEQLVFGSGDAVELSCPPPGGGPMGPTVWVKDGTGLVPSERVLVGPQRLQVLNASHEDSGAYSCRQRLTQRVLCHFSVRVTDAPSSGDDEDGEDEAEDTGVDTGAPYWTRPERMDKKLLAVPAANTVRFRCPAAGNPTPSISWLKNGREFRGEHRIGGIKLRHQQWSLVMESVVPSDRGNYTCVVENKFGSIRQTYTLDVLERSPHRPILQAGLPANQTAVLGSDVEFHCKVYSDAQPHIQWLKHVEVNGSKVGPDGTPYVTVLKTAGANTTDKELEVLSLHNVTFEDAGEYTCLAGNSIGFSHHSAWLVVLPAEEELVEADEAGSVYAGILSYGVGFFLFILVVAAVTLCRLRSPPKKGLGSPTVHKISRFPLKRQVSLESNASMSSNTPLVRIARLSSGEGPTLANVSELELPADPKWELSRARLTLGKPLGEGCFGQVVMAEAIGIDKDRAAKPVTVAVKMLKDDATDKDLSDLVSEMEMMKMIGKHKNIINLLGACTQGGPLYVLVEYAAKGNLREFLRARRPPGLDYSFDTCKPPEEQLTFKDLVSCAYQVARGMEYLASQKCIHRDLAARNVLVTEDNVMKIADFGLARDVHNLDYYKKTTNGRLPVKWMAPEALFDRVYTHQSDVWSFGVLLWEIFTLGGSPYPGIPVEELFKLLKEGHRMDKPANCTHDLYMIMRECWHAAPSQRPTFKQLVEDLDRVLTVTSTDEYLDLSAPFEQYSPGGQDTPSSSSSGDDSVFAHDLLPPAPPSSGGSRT

Q: `C[C@@H]1CCC(c2cc3c4c(cncc4c2)[C@H](C)C3)=C1C=O` [323-1, (15R,2R)-Delavatine A] was tested. Which IC50 (FLT1 (VEGFR1)) did it give?
A: > 20 µM

Q: What about the IC50 (FGFR1) of the same compound?
A: > 20 µM

Q: What about the IC50 (LYN B) of the same compound?
A: > 20 µM

Q: And the IC50 (EGFR (ErbB1))?
A: > 20 µM

Q: And the IC50 (JAK1)?
A: > 20 µM

Q: And the IC50 (MAP2K4 (MEK4))?
A: 2.01 µM

Q: What about the IC50 (FGFR3) of the same compound?
A: > 20 µM

Q: And the IC50 (AKT2 (PKB beta))?
A: > 20 µM

Q: And the IC50 (LYN A)?
A: > 20 µM

Q: And the IC50 (FRAP1 (mTOR))?
A: 6.13 µM

Q: And the Ki [1, 2]?
A: ~94 µM

Q: What about the Ki [1, 3] of the same compound?
A: 94 µM

Q: What about the IC50 (ERBB4 (HER4)) of the same compound?
A: > 20 µM

Q: And the IC50 (LTK (TYK1))?
A: 6.22 µM

Q: And the IC50 (SRC N1)?
A: > 20 µM

Q: And the IC50 (MAPK3 (ERK1))?
A: > 20 µM

Q: What about the IC50 (TYK2) of the same compound?
A: > 20 µM

Q: And the IC50 (SRC)?
A: > 20 µM

Q: And the IC50 (PDGFRA (PDGFR alpha))?
A: > 20 µM

Q: And the IC50 (PRKCD (PKC delta))?
A: > 20 µM

Q: And the IC50 (FGFR2)?
A: > 20 µM

Q: What does the source list for `C[C@@H]1CCC(c2cc3c4c(cncc4c2)[C@@H](C)C3)=C1C=O` [323-2, (15S,2R)-Delavatine A]?
A: IC50 (FLT1 (VEGFR1)): > 20 µM; IC50 (FGFR1): > 20 µM; IC50 (LYN B): > 20 µM; IC50 (EGFR (ErbB1)): > 20 µM; IC50 (JAK1): > 20 µM; IC50 (MAP2K4 (MEK4)): 1.22 µM; IC50 (FGFR3): > 20 µM; IC50 (AKT2 (PKB beta)): > 20 µM; IC50 (LYN A): > 20 µM; IC50 (FRAP1 (mTOR)): 7.52 µM; Ki [1, 2]: ~75 µM; Ki [1, 3]: 75 µM; Potency to disrupt STAT3/GpYLPQTV relative to S3I-201 ([1]; higher than S3I-201): around 5 fold; IC50 (ERBB4 (HER4)): > 20 µM; IC50 (LTK (TYK1)): 5.25 µM; IC50 (SRC N1): > 20 µM; IC50 (MAPK3 (ERK1)): > 20 µM; IC50 (TYK2): > 20 µM; IC50 (SRC): > 20 µM; IC50 (PDGFRA (PDGFR alpha)): > 20 µM; IC50 (PRKCD (PKC delta)): > 20 µM; IC50 (FGFR2): > 20 µM
